These results are taken from patent US20110098352A1, “N,N-DISUBSTITUTED AMINOALKYLBIPHENYL ANTAGONISTS OF PROSTAGLANDIN D2 RECEPTORS” (AMIRA PHARMACEUTICALS, INC., priority 2008, published 2011).

Assay [1] deals with T1, recombinant human CRTH2 receptor (Homo sapiens, UniProt Q9Y5Y4).
T1 construct: expressed in transfected cells
T1 sequence (Q9Y5Y4 1-395): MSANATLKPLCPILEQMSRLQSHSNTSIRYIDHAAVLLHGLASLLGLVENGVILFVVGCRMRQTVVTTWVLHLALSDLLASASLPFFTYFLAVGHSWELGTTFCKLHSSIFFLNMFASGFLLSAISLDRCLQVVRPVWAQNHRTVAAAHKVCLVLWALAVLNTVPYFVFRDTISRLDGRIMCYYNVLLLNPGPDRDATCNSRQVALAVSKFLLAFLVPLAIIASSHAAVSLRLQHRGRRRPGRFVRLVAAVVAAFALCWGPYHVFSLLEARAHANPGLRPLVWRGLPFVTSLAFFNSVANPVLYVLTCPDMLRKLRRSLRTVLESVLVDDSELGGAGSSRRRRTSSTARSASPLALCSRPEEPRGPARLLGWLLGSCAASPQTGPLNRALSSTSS
Description: GTPγS binding assay. Format: biochemical. The following applies: +HSA; CHO cell membranes, 80 nM PGD2; read-out: hDP2 GTPγS μM (+HSA). The protocol: The ability of a compound to inhibit binding of GTP to DP2 is assessed via a membrane GTPγS assay. CHO cells stably expressing the recombinant human CRTH2 receptor are resuspended in 10 mM Hepes, 7.4 containing 1 mM DTT, lysed and centrifuged at 75,000×g to pellet the membranes. The membranes are resuspended in 10 mM Hepes, 7.4 containing 1 mM DTT and 10% glycerol. […] The reactions are terminated by rapid filtration through Whatman GF/B glass fibre filter plates. The filter plates are washed 3 times with 1 ml cold Assay Buffer and dried. Scintillant is then added to the plates and the radioactivity retained on the filters is determined on a Packard TopCount (Perkin Elmer). Specific binding is determined as total radioactive binding minus non-specific binding in the absence of the ligand (80 nM PGD2). IC50s were determined using Graphpad prism analysis of drug titration curves.

The target in the next assay is T2, human DP1 receptor (Homo sapiens, UniProt Q13258).
T2 construct: tissue Biological Specialty Corporation; host or cells: human platelets, membranes
T2 sequence (Q13258 1-359): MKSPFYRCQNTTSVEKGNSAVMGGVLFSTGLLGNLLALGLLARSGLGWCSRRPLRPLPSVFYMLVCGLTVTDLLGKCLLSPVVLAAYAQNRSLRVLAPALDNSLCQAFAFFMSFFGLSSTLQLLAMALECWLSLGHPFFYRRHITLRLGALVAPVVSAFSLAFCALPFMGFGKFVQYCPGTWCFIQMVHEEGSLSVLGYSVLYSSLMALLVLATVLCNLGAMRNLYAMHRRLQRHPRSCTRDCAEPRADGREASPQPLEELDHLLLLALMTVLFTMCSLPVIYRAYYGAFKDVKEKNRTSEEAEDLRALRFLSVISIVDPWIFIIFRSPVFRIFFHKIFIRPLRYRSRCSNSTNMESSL
Description: DP1 radioligand membrane binding assay using [3H]BWA868C. The following applies: [3H]BWA868C binding, human platelet membranes; read-out: hDP1. The protocol: The ability of a compound to bind to the human DP1 receptor was evaluated via a radioligand membrane binding assay using the DP1 selective synthetic ligand [^3H]BWA868C. Packed human platelets (Biological Specialty Corporation), were resuspended in 6 volumes of Hepes/HBSS buffer (10 mM Hepes, 1 mM DTT in Hanks Balanced Salt Solution (HBSS)), lysed and centrifuged at 75,000×g to pellet the membranes. Membranes were resuspended in Hepes/HBSS buffer to approximately 12 mg protein/ml. Membranes (20 μg protein/well) are incubated in 96-well plates with 2 nM [^3H]BWA868C and test compound in Assay Buffer (50 mM Hepes, 10 mM MnCl2, 1 mM EDTA, plus or minus 0.2% human serum albumin, pH 7.4) for 60 minutes at room temperature. The reactions are terminated by rapid filtration through Whatman GF/C glass fibre filter plates. The filter plates were pre-soaked in […] polethylenimine for 30 minutes at room temperature then washed in Wash Buffer (50 mM Hepes, 0.5 M NaCl pH 7.4) prior to harvesting. After harvesting, the filter plates are washed 3 times with 1 ml cold Wash Buffer then dried. Scintillant is then added to the plates and the radioactivity retained on the filters is determined on a Packard TopCount (Perkin Elmer). Specific binding is determined as total radioactive binding minus non-specific binding in the presence of 10 μM BWA868C. IC50s were determined using GraphPad prism analysis of drug titration curves.

Another assay deals with T3, human DP2 receptor (Homo sapiens, UniProt Q9Y5Y4).
T3 construct: expressed in transfected cells
T3 sequence (Q9Y5Y4 1-395): T1 sequence (Q9Y5Y4 1-395)
Description: DP2/CRTH2 radioligand binding assay using [3H]PGD2. The following applies: [3H]PGD2 binding, membranes of HEK293 cells expressing recombinant human DP2; read-out: hDP2. The protocol:
The ability of a compound to bind to the human DP2 receptor is assessed via a radioligand binding assay using [^3H]PGD2. HEK293 cells stably expressing recombinant human DP2 are resuspended in 10 mM Hepes, 7.4 containing 1 mM DTT, lysed and centrifuged at 75,000×g to pellet the membranes. The membranes are resuspended in 10 mM Hepes, 7.4 containing 1 mM DTT and 10% glycerol to approximately 5 mg protein/ml. Membranes (2-10 μg protein/well) are incubated in 96-well plates with 1 nM [^3H]PGD2 and test compound in Assay Buffer (50 mM Hepes, 10 mM MnCl2, 1 mM EDTA, plus or minus 0.2% human serum albumin, pH 7.4) for 60 minutes at room temperature. The reactions are terminated by rapid filtration through Whatman GF/C glass fibre filter plates. The filter plates were pre-soaked in 0.33% polythylenimine for 30 minutes at room temperature then washed in Wash Buffer (50 mM Hepes, 0.5 M NaCl pH 7.4) prior to harvesting. After harvesting, the filter plates are washed 3 times with 1 ml cold Wash Buffer then dried. Scintillant is then added to the plates and the radioactivity retained on the filters is determined on a Packard TopCount (Perkin Elmer). Specific binding is determined as total radioactive binding minus non-specific binding in the presence of 10 μM PGD2. IC50s were determined using GraphPad prism analysis of drug titration curves.

Molecules are shown by their SMILES. Some results are limits rather than exact numbers.

Consider `CCN(Cc1cc(C(F)(F)F)ccc1-c1cc(CC(=O)O)ccc1OC)C(=O)OCc1cc(F)cc(F)c1` [Compound 1-40, (2′-{[(3,5-Difluoro-benzyloxycarbonyl)-ethyl-amino]-methyl}-6-methoxy-4′-trifluoromethyl-biphenyl-3-yl)-acetic acid], for which the figures for the IC50 (in assay [1]; on human DP1 receptor; at human DP2 receptor) were < 0.3 µM, > 1000 nM and < 300 nM, respectively.
For the compound `CCN(Cc1cc(C(F)(F)F)ccc1-c1cc(CC(=O)O)ccc1OC)C(=O)NCc1ccccc1` [Compound 1-96, [2′-(3-Benzyl-1-ethyl-ureidomethyl)-6-methoxy-4′-trifluoromethyl-biphenyl-3-yl]-acetic acid], the figures for the IC50 (in assay [1]; at human DP1 receptor; on human DP2 receptor) were < 0.3 µM, > 1000 nM and < 300 nM, respectively.
Regarding `CCN(Cc1cc(C(F)(F)F)ccc1-c1cc(CC(=O)O)ccc1OC)C(=O)COc1ccc(Cl)cc1` [Compound 1-93, [2′-({[2-(4-Chloro-phenoxy)-acetyl]-ethyl-amino}-methyl)-6-methoxy-4′-trifluoromethyl-biphenyl-3-yl]-acetic acid], the IC50 in assay [1] is < 0.3 µM; at human DP1 receptor it was > 1000 nM; on human DP2 receptor, < 300 nM.
Take `CCN(Cc1cc(F)ccc1-c1cc(CC(=O)O)ccc1OC)C(=O)C1CC1` [Compound 1-186, {2′-[(Cyclopropanecarbonyl-ethyl-amino)-methyl]-4′-fluoro-6-methoxy-biphenyl-3-yl}-acetic acid]: the IC50 in assay [1] is < 0.3 µM; on human DP1 receptor, > 1000 nM; at human DP2 receptor, < 300 nM.
For `CC(=O)N(Cc1cc(C(F)(F)F)ccc1-c1cc(CC(=O)O)ccc1F)CC(F)(F)F` [Compound 1-11, (2′-{[Acetyl-(2,2,2-trifluoro-ethyl)-amino]-methyl}-6-fluoro-4′-trifluoromethyl-biphenyl-3-yl)-acetic acid] the same measures were < 0.3 µM, > 1000 nM and < 300 nM.
With `CCN(Cc1cc(C(F)(F)F)ccc1-c1cc(CC(=O)O)ccc1OC)C(=O)COc1ccccc1` [Compound 1-48, (2′-{[Ethyl-(2-phenoxy-acetyl)-amino]-methyl}-6-methoxy-4′-trifluoromethyl-biphenyl-3-yl)-acetic acid], the IC50 in assay [1] is < 0.3 µM; on human DP1 receptor, > 1000 nM; at human DP2 receptor it was < 300 nM.
Turning to `CCN(Cc1ccccc1)C(=O)N(CC)Cc1cc(C(F)(F)F)ccc1-c1cc(CC(=O)O)ccc1OC` [Compound 1-94, [2′-(3-Benzyl-1,3-diethyl-ureidomethyl)-6-methoxy-4′-trifluoromethyl-biphenyl-3-yl]-acetic acid], the IC50 in assay [1] is < 0.3 µM; at human DP1 receptor, > 1000 nM; at human DP2 receptor, < 300 nM.
With `O=C(O)CCn1c2c(c3ccccc31)C[C@H](NS(=O)(=O)c1ccc(F)cc1)CC2` [Ramatroban, reference compound], the IC50 is 0.3 to 1 µM in assay [1], > 1000 nM on human DP1 receptor and 300 to 1000 nM on human DP2 receptor.
On the same counts, the results for `CCN(Cc1cc(C(F)(F)F)ccc1-c1cc(CC(=O)O)ccc1OC)C(=O)OC` [Compound 1-23, {2′-[(Ethyl-methoxycarbonyl-amino)-methyl]-6-methoxy-4′-trifluoromethyl-biphenyl-3-yl}-acetic acid] are < 0.3 µM, > 1000 nM and < 300 nM.
`CCN(Cc1cc(C(F)(F)F)ccc1-c1cc(CC(=O)O)ccc1OC)C(=O)C(C)(C)Oc1ccc(Cl)cc1` [Compound 1-118, [2′-({[2-(4-Chloro-phenoxy)-2-methyl-propionyl]-ethyl-amino}-methyl)-6-methoxy-4′-trifluoromethyl-biphenyl-3-yl]-acetic acid]: the values for the IC50 (in assay [1]; on human DP1 receptor; on human DP2 receptor) were < 0.3 µM, > 1000 nM and < 300 nM, respectively.
Turning to `CCN(Cc1cc(C(F)(F)F)ccc1-c1cc(CC(=O)O)ccc1Cl)C(=O)OCc1ccccc1` [Compound 1-110], the figures for the IC50 (in assay [1]; on human DP1 receptor; at human DP2 receptor) were < 0.3 µM, > 1000 nM and < 300 nM, respectively.
Regarding `CCN(Cc1cc(C(F)(F)F)ccc1-c1cc(CC(=O)O)ccc1OC)C(=O)OCc1ccc(Cl)cc1` [Compound 1-42, (2′-{[(4-Chloro-benzyloxycarbonyl)-ethyl-amino]-methyl}-6-methoxy-4′-trifluoromethyl-biphenyl-3-yl)-acetic acid], the IC50 in assay [1] was < 0.3 µM; at human DP1 receptor, > 1000 nM; on human DP2 receptor, < 300 nM.
`CCN(Cc1cc(C(F)(F)F)ccc1-c1cc(CC(=O)O)ccc1OC)C(=O)OCc1cccc(Cl)c1` [Compound 1-43, (2′-{[(3-Chloro-benzyloxycarbonyl)-ethyl-amino]-methyl}-6-methoxy-4′-trifluoromethyl-biphenyl-3-yl)-acetic acid]: the results for the IC50 (in assay [1]; at human DP1 receptor; at human DP2 receptor) were < 0.3 µM, > 1000 nM and < 300 nM, respectively.
Regarding `COc1ccc(CC(=O)O)cc1-c1ccc(C(F)(F)F)cc1CN(C(C)=O)C1CC1` [Compound 1-12, {2′-[(Acetyl-cyclopropyl-amino)-methyl]-6-methoxy-4′-trifluoromethyl-biphenyl-3-yl}-acetic acid], the IC50 was < 0.3 µM in assay [1], > 1000 nM on human DP1 receptor and < 300 nM on human DP2 receptor.
As to `CCN(Cc1cc(C(F)(F)F)ccc1-c1cc(CC(=O)O)ccc1OC)C(=O)C(C)C` [Compound 1-246, {2′-[(Ethyl-isobutyryl-amino)-methyl]-6-methoxy-4′-trifluoromethyl-biphenyl-3-yl}-acetic acid], the IC50 is < 0.3 µM in assay [1] and < 300 nM on human DP2 receptor.
For the compound `CCN(Cc1cc(C(F)(F)F)ccc1-c1cc(CC(=O)O)ccc1O)C(=O)NCc1ccccc1` [Compound 1-220, [2′-(3-Benzyl-1-ethyl-ureidomethyl)-6-hydroxy-4′-trifluoromethyl-biphenyl-3-yl]-acetic acid], the IC50 in assay [1] is < 0.3 µM; on human DP2 receptor, < 300 nM.
As to `CCN(Cc1cc(C(F)(F)F)ccc1-c1cc(CC(=O)O)ccc1OC)C(=O)NCc1cccc(Cl)c1` [Compound 1-177, {2′-[3-(3-Chloro-benzyl)-1-ethyl-ureidomethyl}-6-methoxy-4′-trifluoromethyl-biphenyl-3-yl}-acetic acid], the IC50 at human DP1 receptor is > 1000 nM; at human DP2 receptor it was < 300 nM.
